Converted amounts (≈) assume the structure as drawn.
What was measured:
JK Diptheroids = assay: MIC against an expanded panel; format: cell-based; conditions: Table 4, JK Diptheroids (19 strains)
Source text: (§1) The number of strains tested is shown in parentheses below each organism. The average MIC is reported in μg/ml.

Group A Strep. = assay: MIC against an expanded panel; format: cell-based; conditions: Table 4, Group A Strep. (6 strains)
Source text: as §1

Group B Strep. = assay: MIC against an expanded panel; format: cell-based; conditions: Table 4, Group B Strep. (4 strains)
Source text: as §1

Coag-neg. Staphylococci = assay: MIC against an expanded panel; format: cell-based; conditions: Table 4, Coag-neg. Staphylococci (24 strains)
Source text: as §1

Viridans = assay: MIC against an expanded panel; format: cell-based; conditions: Table 4, Viridans (2 strains)
Source text: as §1

[1] = predicted human half-life; conditions: in comparison to vancomycin
S. faecalis = assay: mice infected intraperitoneally, dosed 1 hr after infection, ED50; format: in vivo
Protocol: (§2) The in vivo activity of the CWI-785 complex and its components and hydrolysis products was confirmed by administering selected CWI-785 antibiotics to mice infected with various gram-positive pathogens. In one representative assay, in which mice infected intraperitoneally with 46.8 LD50 's of S. aureus (strain 1, Tables 1 and 2) were dosed once, subcutaneously one hour after infection, the following ED50 's (mg/kg) were observed: CWI-785B: 2.4, CWI-785C: 3.1, CWI-785: 3.8, HPB3: 0.9, vancomycin: 0.7. In a second representative assay carried out as above except that mice were infected with 3.17 LD50 's of S. faecalis (strain 9, Table 2), the following ED50 's were observed: HPB3 hydrochloride: 1.6, HPB4 hydrochloride: 1.6, vancomycin: 2.2, teicoplanin: 1.3.
(§3) In Table 6, below, is shown the ED50 in mg/kg of HPB4 in comparison to vancomycin and teicoplanin. Mice were injected i.p. with the indicated organism and then i.v., 1 hr post infection, with the indicated antibiotic.

S. aureus = assay: as above; format: in vivo; conditions: for ED50: antibiotic i.v. 1 hr post infection
Protocol: as §2, §3

S. haemolyticus = assay: mice infected i.p., antibiotic i.v. 1 hr post infection, ED50; format: in vivo; conditions: S. haemolyticus 651 (8 × LD50) i.p., antibiotic i.v. 1 hr post infection
Protocol: as §3

S. epidermidis = assay: as above; format: in vivo; conditions: S. epidermidis 2479 (>1000 × LD50) i.p., antibiotic i.v. 1 hr post infection
Protocol: as §3

Streptococcus pyogenes = assay: standard microtiter assay, minimum inhibitory concentration; format: cell-based; conditions: Table 2 test organism 11, Streptococcus pyogenes
Source text: (§4) Representative results of standard microtiter assays are reported in Tables 1, 2 and 3 which follow, as the minimum inhibitory concentration of antibiotic (μg/ml).
(§5) In Table 1, test organisms 1-13 were different strains of Staphylococcus aureus, and 14-16 were different strains of Staphylococcus epidermidis. In Table 2, test organisms 1-5 were different strains of S. aureus; 6, 8, 12 and 14 were different strains of S. epidermidis; 7 was a Staphylococcus haemolyticus; 9 and 10 were different strains of Streptococcus faecalis; 11 was a Streptococcus pyogenes; and 13 was a Staphylococcus saprophyticus. In Table 3, test organisms 1-3 were different strains of S. aureus; 4 and 6 were different strains of S. epidermidis; 5 was a S. haemolyticus and 7 and 8 were different strains of Streptococcus faecalis. Except where individual components are indicated, the CWI-785 antibiotic employed was the CWI-785 complex; in some cases, HCl salts of the CWI-785 antibiotic were employed.

[2] = tested on: Staphylococcus saprophyticus; assay: as above; format: cell-based; conditions: for MIC: Table 5 organism 6 S. saprophyticus
Source text: as §4, §5
(§6) In Table 5 are shown data from standard microtiter assays carried out in a presence of no serum, 50% human serum (hum.) and 50% mouse serum (mse.). The test organisms were 1: S. aureus; 2,4 and 5: different strains of S. epidermidis; 3: S. haemolyticus; 6: S. saprophyticus; 7 and 8: different strains of S. faecalis.

[3] = tested on: Staphylococcus haemolyticus; assay: as above; format: cell-based; conditions: for MIC: Table 5 organism 3 S. haemolyticus
Source text: as §4, §5, §6

[4] = tested on: Staphylococcus epidermidis; assay: as above; format: cell-based
Source text: as §4, §5, §6

gram-positive organisms = assay: in vitro antibacterial activity (stated in words); format: cell-based; conditions: in vitro data
Source text: Unless specifically indicated, as used herein, CWI-785B, HPB4 and HPB3 will mean a mixture of epimers. Analogous ' and " epimers of other components of the CWI-785 complex also exist and are included within the scope of the invention.

Streptococcus faecalis = assay: standard microtiter assay, minimum inhibitory concentration; format: cell-based
Source text: as §4, §5, §1, §6

Staphylococcus aureus = assay: as above; format: cell-based; conditions: for MIC: Table 5 organism 1 S. aureus
Source text: as §4, §5, §1, §6

[5] = Table 4, Strep. faecalis (12 strains)
[6] = Table 4, S. aureus (30 strains)

In the case of `CNC(C(=O)NC1C(=O)NC(CCSC)C(=O)NC2C(=O)NC3C(=O)NC(C(=O)NC(C(=O)O)c4cc(O)cc(O)c4-c4cc3ccc4O)C(O[C@H]3C[C@@H](N)[C@@H](O)[C@H](C)O3)c3ccc(c(Cl)c3)Oc3cc2cc(c3O)Oc2ccc(cc2)C1O)c1ccc(O)cc1` (stereo partly shown) [HPB4], the MIC50 (JK Diptheroids) is reported as 0.4 µg/mL (≈ 0.31 µM), the “MIC RANGE” value (JK Diptheroids) is reported as 0.4 to 0.8 µg/mL and the MIC50 (Group A Strep.) is reported as 0.4 µg/mL (≈ 0.31 µM). The “MIC RANGE” value (Group A Strep.) was 0.05 to 0.8 µg/mL, the “MIC RANGE” value (Group B Strep.) was 0.1 to 0.8 µg/mL and the MIC50 (Coag-neg. Staphylococci) was 1.6 µg/mL (≈ 1.24 µM). For the same compound, the “MIC RANGE” value (Coag-neg. Staphylococci) was 0.4 to 3.1 µg/mL, the “MIC RANGE” value (Viridans) was 0.025 to 0.8 µg/mL and the “human half-life (predicted)” value [1] was “at least 12 hours”. The ED50 (S. faecalis; S. faecalis 34358 (9 × LD50) i.p., antibiotic i.v. 1 hr post infection) was 1.0 mg/kg, the “in vivo effectiveness relative to HPB4"” value (S. faecalis; against S. faecalis 34358) was “fourfold more effective” and the ED50 (S. aureus; S. aureus 2620 (24 × LD50) i.p.) was 1.6 mg/kg. For the same compound, the ED50 (S. aureus; S. aureus HH 127 (35 × LD50) i.p.) was 1.8 mg/kg, the “in vivo effectiveness relative to HPB4"” value (S. aureus; against S. aureus 127) was “fourfold more effective” and the ED50 (S. haemolyticus) was 20 mg/kg. The ED50 (S. epidermidis) was 2.0 mg/kg, the minimum inhibitory concentration (Streptococcus pyogenes) was 0.2 µg/mL (≈ 0.155 µM) and the minimum inhibitory concentration ([2]; Table 2 test organism 13, Staphylococcus saprophyticus) was 1.6 µg/mL (≈ 1.24 µM). The MIC ([2]; 50% Hum. Serum) was 6.3 µg/mL (≈ 4.88 µM), the MIC ([2]; 50% Mse. Serum) was 0.2 µg/mL (≈ 0.155 µM) and the MIC ([2]; No Serum) was 0.8 µg/mL (≈ 0.619 µM). For the same compound, the minimum inhibitory concentration ([3]; Table 2 test organism 7, Staphylococcus haemolyticus) was 1.6 µg/mL (≈ 1.24 µM), the MIC ([3]; 50% Hum. Serum) was 6.3 µg/mL (≈ 4.88 µM) and the MIC ([3]; 50% Mse. Serum) was 6.3 µg/mL (≈ 4.88 µM). For the same compound, the MIC ([3]; No Serum) was 1.6 µg/mL (≈ 1.24 µM), the minimum inhibitory concentration ([4]; Table 2 test organism 6, S. epidermidis strain) was 1.6 µg/mL (≈ 1.24 µM) and the minimum inhibitory concentration ([4]; Table 2 test organism 8, S. epidermidis strain) was 3.1 µg/mL (≈ 2.4 µM). The minimum inhibitory concentration ([4]; Table 2 test organism 12, S. epidermidis strain) was 1.6 µg/mL (≈ 1.24 µM), the minimum inhibitory concentration ([4]; Table 2 test organism 14, S. epidermidis strain) was 0.8 µg/mL (≈ 0.619 µM) and the MIC ([4]; Table 5 organism 2 S. epidermidis, 50% Hum. Serum) was 3.1 µg/mL (≈ 2.4 µM). The MIC ([4]; Table 5 organism 2 S. epidermidis, 50% Mse. Serum) was 3.1 µg/mL (≈ 2.4 µM), the MIC ([4]; Table 5 organism 2 S. epidermidis, No Serum) was 1.6 µg/mL (≈ 1.24 µM) and the MIC ([4]; Table 5 organism 4 S. epidermidis, 50% Hum. Serum) was 3.1 µg/mL (≈ 2.4 µM). The MIC ([4]; Table 5 organism 4 S. epidermidis, 50% Mse. Serum) was 3.1 µg/mL (≈ 2.4 µM), the MIC ([4]; Table 5 organism 4 S. epidermidis, No Serum) was 3.1 µg/mL (≈ 2.4 µM) and the MIC ([4]; Table 5 organism 5 S. epidermidis, 50% Hum. Serum) was 3.1 µg/mL (≈ 2.4 µM). For the same compound, the MIC ([4]; Table 5 organism 5 S. epidermidis, 50% Mse. Serum) was 1.6 µg/mL (≈ 1.24 µM), the MIC ([4]; Table 5 organism 5 S. epidermidis, No Serum) was 0.8 µg/mL (≈ 0.619 µM) and the “in vitro activity relative to the corresponding B" isomer” value (gram-positive organisms) was “more active”. The minimum inhibitory concentration (Streptococcus faecalis; Table 2 test organism 9, Streptococcus faecalis strain) was 0.8 µg/mL (≈ 0.619 µM), the minimum inhibitory concentration (Streptococcus faecalis; Table 2 test organism 10, Streptococcus faecalis strain) was 0.8 µg/mL (≈ 0.619 µM) and the MIC50 (Streptococcus faecalis; [5]) was 0.4 µg/mL (≈ 0.31 µM). The “MIC RANGE” value (Streptococcus faecalis; [5]) was 0.2 to 0.8 µg/mL, the MBC50 (Streptococcus faecalis; Table 4, Strep. faecalis MBC50) was 12.5 µg/mL (≈ 9.68 µM) and the “MBC RANGE” value (Streptococcus faecalis; Table 4, Strep. faecalis MBC50 column) was 3.1 to 25 µg/mL. For the same compound, the MIC (Streptococcus faecalis; Table 5 organism 7 S. faecalis, 50% Hum. Serum) was 3.1 µg/mL (≈ 2.4 µM), the MIC (Streptococcus faecalis; Table 5 organism 7 S. faecalis, 50% Mse. Serum) was 3.1 µg/mL (≈ 2.4 µM) and the MIC (Streptococcus faecalis; Table 5 organism 7 S. faecalis, No Serum) was 0.4 µg/mL (≈ 0.31 µM). The MIC (Streptococcus faecalis; Table 5 organism 8 S. faecalis, 50% Hum. Serum) was 3.1 µg/mL (≈ 2.4 µM), the MIC (Streptococcus faecalis; Table 5 organism 8 S. faecalis, 50% Mse. Serum) was 3.1 µg/mL (≈ 2.4 µM) and the MIC (Streptococcus faecalis; Table 5 organism 8 S. faecalis, No Serum) was 0.4 µg/mL (≈ 0.31 µM). For the same compound, the minimum inhibitory concentration (Staphylococcus aureus; Table 2 test organism 1, S. aureus strain) was 1.6 µg/mL (≈ 1.24 µM), the minimum inhibitory concentration (Staphylococcus aureus; Table 2 test organism 2, S. aureus strain) was 0.8 µg/mL (≈ 0.619 µM) and the minimum inhibitory concentration (Staphylococcus aureus; Table 2 test organism 3, S. aureus strain) was 0.8 µg/mL (≈ 0.619 µM). For the same compound, the minimum inhibitory concentration (Staphylococcus aureus; Table 2 test organism 4, S. aureus strain) was 0.8 µg/mL (≈ 0.619 µM), the minimum inhibitory concentration (Staphylococcus aureus; Table 2 test organism 5, S. aureus strain) was 0.8 µg/mL (≈ 0.619 µM) and the MIC50 (Staphylococcus aureus; [6]) was 0.8 µg/mL (≈ 0.619 µM). For the same compound, the “MIC RANGE” value (Staphylococcus aureus; [6]) was 0.2 to 0.8 µg/mL, the MIC (Staphylococcus aureus; 50% Hum. Serum) was 1.6 µg/mL (≈ 1.24 µM) and the MIC (Staphylococcus aureus; 50% Mse. Serum) was 1.6 µg/mL (≈ 1.24 µM). It also gave an MIC (Staphylococcus aureus; No Serum) of 1.6 µg/mL (≈ 1.24 µM).
